Reference: patent US6875594B2, “Methods of ligating expressed proteins” (The Rockefeller University, priority 1997, dated 2005)

Molecular target: AsiA (Enterobacteria phage T4, UniProt P32267)
Settings: His-tagged σ fragment on Ni2+-NTA beads, imidazole elution
Protocol: The complementary experiment was done using wild type, untagged AsiA. Instead, a synthetic hexahistidine tag was chemically ligated to the N-terminus of σ568-600 as described herein. AsiA and His-tagged σ fragment were loaded on Ni^2+NTA beads, the beads were washed and eluted with increasing concentrations of imidazole in the buffer.
100 μl reactions contained 15 μl of Ni^2+-NTA agarose (Qiagen), 50-100 pmol σ^70 or σ^70 derivative, 200 pmol AsiAHis, 20 mM Tris-HCl, pH 7.9, 100 mM KCl, 10 mM MgCl2. Reactions were preincubated for 15 min at room temperature, after which the beads were pelleted by brief centrifugation and the supernatant, containing the unbound material was removed. The beads were then washed three times with the same buffer containing 10 mM imidazole, pH 8.0, resuspended in 50 μl of the buffer containing 100 mM imidazole and incubated for additional 15 min at room temperature. The supernatant containing the bound material was then withdrawn. Aliquots of the reactions were then analyzed on 8-25% Phast gels (Pharmacia) and silver stained.

AsiA, sequence (P32267 whole entry, the tested form may be a part): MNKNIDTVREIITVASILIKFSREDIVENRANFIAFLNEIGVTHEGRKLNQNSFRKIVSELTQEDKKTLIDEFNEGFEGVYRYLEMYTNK

## His6-Cys-[SCH2]-aminocaproate-σ568-600 [His-tagged σ568-600]
  interaction with wild type, untagged AsiA: strong interaction
